# From US8735443B2, “Method of treating diabetes-related vascular complications” (Kuwait University, priority 2008, dated 2014)
# Columns and labels:
# aortic vessels = experiment: Dihydroethidium / ethidium bromide fluorescence of aortic sections; assay type: in vivo, rat; settings: LA-treated diabetic rats
# Description: Dihydroethidium (DHE), an oxidative fluorescent dye, was used to localize superoxide production in situ. DHE is oxidized on reaction with superoxide to ethidium bromide, which binds to DNA in the nucleus and fluoresces. Arteries were embedded in OCT medium, frozen and cryosectioned. Vascular sections were incubated with DHE at a concentration (10^−6 mol/l) at 37° C. for 30 minutes. DHE images from serial sections were obtained using a Zeiss Axioplan 2000 fluorescence microscope.
# NF-κB [1] = experiment: NF-κB expression by western blotting, HEK-499; assay type: cell-based; settings: HEK-499 cells exposed to α-lipoic acid
# Text: (§1) Alpha-lipoic acid increased HEK-499 cells, which were engineered to be resistant to chemotherapies and radiotherapies by depleting Raf Kinase inhibitory protein resistance to lethal doses of cisplatin, a chemical used in cancer therapy.
# gp 91^phox = experiment: Aortic mRNA expression by real-time PCR, gp 91phox; assay type: in vivo, rat; settings: aorta of LA-treated GK rats
# Description: (§2) Further, with regard to quantitative real-time polymerase chain reactions (PCR) in the study, total RNA from the arterial samples was isolated using TRIZOL® reagent, and RNA integrity was verified by agarose gel electrophoresis and quantified by spectrophotometry. Reverse transcription reaction of total RNA (5 μg) was performed using a superscript 111 first-strand synthesis system. Quantitative real-time PCR was performed using fast SYBR Green QPCR. […]
# (§3) The housekeeping gene beta-actin was used for internal normalization. Fidelity of the PCR reaction was determined by melting temperature analysis. PCR efficiency for each primer pair was determined by quantitating amplification with increasing concentration of template cDNA. […] RNA expression of target genes was calculated based on the real-time PCR efficiency E and the threshold crossing point (CP) and is expressed relative to the reference gene beta-actin.
# cultured arteries = experiment: Cultured arteries of non-diabetic control animals exposed to TNF-α; parameters: species or system rat; settings: pretreatment with LA
# NF-κB [2] = experiment: Aortic nuclear NF-κB, western blotting; assay type: in vivo, rat; settings: GK rats, LA chronic therapy
# Description: For detection of caspase 3-like activity, protein was isolated and caspase activity was detected in resulting supernatant using an APO-ONE homogenous caspase 3/7 assay (Promega). With regard to subcellular fractionation and western blotting, aortic tissue nuclear extracts were prepared and protein (40 μg) was loaded in each well of […] polyacrylamide gel. Separated polypeptide was transferred to nitrocellulose membrane IBio-Rad) and probed with anti NFκB at a 1:2,000 […]. Chemiluminescent detection was performed by an ECL Western Blotting Detection Kit®.
# It is well known that TNF-α enhances the activity of NF-κB, most probably via H202 mediated mechanisms. Using data showing that both TNF-α and H202 levels were elevated in diabetic vascular tissues, NF-κB activity was assessed using a western blotting-based technique with an antibody (anti P65) that specifically recognizes the active form of this transcription factor. […] Nuclear localization of NF-κB in aortic tissues was determined using differential centrifugation and western blotting-based techniques.
# diabetic fibroblasts = experiment: Inflammatory cytokine release by fibroblasts, ELISA; assay type: cell-based, rat; settings: lipoic acid 500 μM, Nrf2-dependent
# Text: To determine the effect of α-lipoic acid on isolated cells from normal and diabetic rats, primary rat fibroblasts were derived from dorsal skin biopsies performed on four diabetic Coto Kakizaki rats (DFs) and four age-matched (12-14 months) and sex-matched (female) Wistar control rats (CFs). After sterilization in povidine solution, the rat skin was washed in sterile water and rinsed in 70% ethanol in phosphate-buffered saline (PBS). The epidermis and dermis were separated following overnight incubation in 0.25% Trypsin/EDTA at 4° C. Samples were washed, diced and digested for thirty minutes at 37° C. in collagenase type I (250 U/ml) dissolved in Dulbecco's modified Eagle medium (DMEM; Invitrogen) containing penicillin (100 U/ml), 2 mM L-glutamine and 26 mM HEPES. After collagenase treatment, the cells were dislodged, centrifuged and resuspended in medium supplemented with 10% fetal bovine serum. […]
# With regard to ELISA assays to determine cytokine expression levels, control and diabetic fibroblasts were seeded on a 6-well plate at 2.5×10^5 cells/well. […] After incubation for 16 hr, supernatants were collected and analyzed for key inflammatory cytokines, including TNF-α, IL-1β, fractalkine and monocyte chemoattractant protein-1 (MCP-1) using commercially available ELISA kits specific for rats and according to the protocols provided by the manufacturers (R&D and Ray Biotech). […]
# TNF-α = experiment: Aortic mRNA expression by QRT-PCR, TNF-α; assay type: in vivo, rat; settings: GK rats, LA chronic therapy
# Description: as §2, §3
# HEK-499 cells = experiment: Viability of cells exposed to cisplatin; assay type: cell-based; settings: 500 microMolar α-lipoic acid in the media prior to cisplatin at variable doses
# Text: as §1
smiles,measurement,setting,value
"O=C(O)CCCCC1CCSS1 (stereo not drawn) [LA, alpha-lipoic acid]",nuclear EB fluorescence in aortic vessels,aortic vessels,significantly reduced
same,NF-κB expression,NF-κB [1],significant increase
same,rate of gene expression of pg 91^phox subunit,gp 91^phox,tended to reduce
same,"TNF-α-induced abnormalities (O2− generation, caspase 3/7, DNA fragmentation, Ach-induced vasorelaxation)",cultured arteries,partially reversed
same,high NF-κB level in vascular diabetic nuclei,NF-κB [2],reversed
same,release of inflammatory cytokines by diabetic fibroblasts,diabetic fibroblasts,ameliorated
same,diabetes related up-regulation of TNF-α mRNA (aorta),TNF-α,Reversal
same,protection of cells from lethal doses of cisplatin,HEK-499 cells,significantly protected
